Results taken from US7892769B2, “Processing of EphA4 polypeptide by γ-secretase activity” (Eisai R&D Management Co., Ltd., priority 2007, dated 2011).

Tests used:
γ-secretase [1] = biological target: T1, γ-secretase (Homo sapiens, UniProt P49768); experiment: Analysis of EphA4 processing in EphA4-HA-transfected 293/EBNA-1 cell strain (Western blotting, anti-HA antibody); type: cell-based; settings: 50 nM Compound E, one day; cells expressing rat EphA4 with C-terminal HA tag; vs sample untreated with Compound E; FIG. 1
T1 construct: host or cells: 293/EBNA-1 (HEK293) cells; only the substrate EphA4-HA was transfected
Method: Whether or not EphA4 is a substrate for γ-secretase was evaluated using HEK293 cells expressing EphA4 with an HA tag added to its C-terminus, in the presence of a γ-secretase inhibitor. As the γ-secretase inhibitor, (2S)-2-{[(3,5-difluorophenyl)acetyl]amino}-N-[(3S)-1-methyl-2-oxo-5-phenyl-2,3-dihydro-1H-1,4-benzodiazepin-3-yl]propanamide (hereinafter, sometimes referred to as “Compound E”) (Alexis Biochemicals) was used.
293/EBNA-1 cell strain (Invitrogen) was cultured in 10% FEB (Hyclone)/DMEM (Invitrogen) under 5% CO2 at 37° C., followed by transfection thereinto of a gene encoding rat EphA4 with an HA tag added to its C-terminus with Lipofectamine 2000 (Invitrogen). After one day culture under the same conditions, 50 nM Compound E (Alexis Biochemicals) was added to the medium. Cells were cultured for another day under the same conditions. Then, the transfected HEK293 cells were collected with PBS (Sigma) and sonicated with a sonicator (Taitec VP-5S) to disrupt cells. Then, the quantity of protein was determined with Protein Assay Kit (BioRad). […]
First, the substrate for γ-secretase is cut off its extracellular domain by other protease. […] Since reactions proceed very quickly from the first cleavage to the final degradation by proteasome, the substrate is […] when detected by Western blotting.

γ-secretase [2] = biological target: T2, γ-secretase (Rattus norvegicus, UniProt P97887); experiment: Analysis of EphA4 processing in primary culture of rat hippocampal neurons (Western blotting, anti-EphA4 antibody); type: cell-based; settings: Compound E final concentration 50 nM, one week; endogenous EphA4; vs sample untreated with Compound E; FIG. 2
T2 construct: endogenous in cells; host or cells: primary culture of hippocampal neurons from embryonic day 18 SD rats (Charles River)
Method: Whether or not EphA4 is a substrate for γ-secretase was evaluated using a primary culture of rat hippocampal neurons in the presence of a γ-secretase inhibitor. As the γ-secretase inhibitor, (2S)-2-{[(3,5-difluorophenyl)acetyl]amino}-N-[(3S)-1-methyl-2-oxo-5-phenyl-2,3-dihydro-1H-1,4-benzodiazepin-3-yl]propanamide (Compound E) (Alexis Biochemicals) was used.
The hippocampus was isolated from embryonic day 18 SD rats (Charles River) and subjected to culture. Specifically, embryos were removed aseptically from pregnant rats under etherization. The brain was removed from each embryo and dipped in 20% FBS (Hyclone)/HBSS (Sigma). The hippocampus was collected from the thus obtained brain under a stereomicroscope. The collected hippocampus was treated in an enzyme solution containing 0.25% trypsin (Invitrogen) and 0.5 mg/ml DNase (Sigma) at 35° C. for 10 minutes to disperse cells. This enzyme reaction was terminated by adding 20% FBS (Hyclone)/HBSS (Sigma). Then, 2 ml of HBSS (Sigma) was added to the resultant cells. The HBSS-added cell mass was re-dispersed by gentle pipetting. The resultant neuron suspension was diluted with a medium and plated in 10 cm dishes at an initial cell density of 1.5×10^6 cells/dish. […] Then, cells were collected with PBS and subjected to quantitative determination of protein. […]

Structure (SMILES): C[C@H](NC(=O)Cc1cc(F)cc(F)c1)C(=O)N[C@H]1N=C(c2ccccc2)c2ccccc2N(C)C1=O [Compound E, (2S)-2-{[(3,5-difluorophenyl)acetyl]amino}-N-[(3S)-1-methyl-2-oxo-5-phenyl-2,3-dihydro-1H-1,4-benzodiazepin-3-yl]propanamide]
- accumulation of EphA4 C-terminal fragment (CTF) band (γ-secretase [1]): a band around 50 kDa (CTF) was accumulated specifically
- accumulation of EphA4 C-terminal fragment (CTF) band (γ-secretase [2]): a band around 50 kDa (CTF) was accumulated specifically
